Starred links: 1 amine or outer side, 2 acyl side, 3 side chain; linkers in the order of their positions; H or OH if unused. Positions of bridges follow the written chain, without caps; N, C: chain ends. Non-standard residues stand in square brackets, D forms with d. Residues, ends and D or L forms follow the SMILES beside them. *: point of attachment. hTyr(3S-OH,4S-OH,3'-OSO3H) = N[C@H](C(=O)O)[C@H](O)[C@@H](O)c1ccc(O)c(OS(=O)(=O)O)c1; Orn(4R-OH,5R-OH) = O=C([C@H](C[C@@H](O)[C@@H](O)N[*:3])N[*:1])[*:2]; Pro(3S-OH,4S-Me) = C[C@H]1CN[C@H](C(=O)O)[C@H]1O; X1 = CCCCCOc1ccc(-c2cc(-c3ccc(C(=O)*)cc3)no2)cc1; Gln(3R-OH) = NC(=O)C[C@@H](O)[C@H](N)C(=O)O; Hyp = O=C(O)[C@@H]1C[C@@H](O)CN1
System: Human Renal Proximal Tubular Epithelial Cells (HRPTEpiC)
Assay: Oxygen and glucose deprivation followed by replenishment, cell survival (calcein AM), HRPTEpiC
Format: cell-based
Description: Anidulafungin and micafungin were tested on Human Renal Glomerular Endothelial Cells (HRGEC, Innoprot P10665), on Human Renal Proximal Tubular Epithelial Cells (HRPTEpiC, Innoprot P10662), on Human Astrocytes (HA, caltag SC-1800), on Human Cardiac Microvascular Endothelial Cells (HCMEC, Caltag SC-6000), on Human Hepatic Sinusoidal Endothelial Cells (HHSEC, Caltag SC-5000), on Rat Primary Kidney Glomerular Endothelial cells (Cellbiologics, RN-6014G) and on Bovine Brain Microvascular Endothelial Cells (BBMEC, Caltag SC-B100).
In a first phase, these isolated, purified and cryopreserved cells are thawed and multiplied according to the supplier's recommendations in T75 or T175 flasks pre-coated with 2 μg of fibronectin/[…] (CORNING) for HRGEC, HCMEC, HHSEC and BBMEC, or 2 μg poly-L-lysin/cm^2 (Caltag SC-0403) for HRPTEpiC and HA, or 15 mL/flask 175 cm^2 gelatin-based solution (Cellbiologics) in the presence of endothelial cell supplemented growth medium ECM (P60104, INNOPROT, Caltag, SC-1001) for HRGEC, HCMEC, HHSEC, RPKGEC or BBMEC, or astrocyte cell supplemented growth medium AM (Caltag SC-1801) for HA or epithelial cell supplemented growth medium EpiCM (P60106, INNOPROT) for HRPTEpiC, at 37° C. under 5% CO2 and saturated humidity until their confluency. They are then harvested by trypsinization according to the method described by the supplier for exactly 5 minutes and then reseeded in new flasks a maximum of three times.
To carry out the oxygen and glucose deprivation test followed by their replenishment, the cells will be seeded in 96-well black plates with transparent flat bottom (GREINER). Once a sufficient number of cells has been obtained to allow seeding of 2000 to 15000 cells per well of 96-well plates depending on the cell type, the cells are seeded in these 96-well plates previously coated with an extracellular matrix as listed above for the flasks. The cells are cultured for 5 to 8 days according to the cell type, in the presence of the same growth medium as in the flask as described above except for HRGEC and HRPTEpiC for which DMEM (DUTSCHER) with 1 g/L of supplemented glucose is used, at 37° C. under 5% CO2 and saturated humidity to obtain confluency.
On the first day of oxygen and glucose deprivation, (5th, 6th, 7th or 8th day of culture), the culture conditions are drastically changed. The medium of all plates is removed and replaced by DMEM (DUTSCHER) medium without glucose and supplemented only with 1% penicillin-streptomycin (DUTSCHER). Anidulafungin or micafungin dissolved in dimethyl sulfoxide (DMSO) is then added to each well at the desired concentration, resulting in a maximum of 1% DMSO, and the plates are placed under hypoxia at <1% 02 and 5% CO2 at 37° C. for 24 hours of culture. Each compound was tested in a concentration range.
After 24 hours, the growth medium is changed and replaced by a richer medium, DMEM (DUTSCHER) at 1 g/L glucose and 2% FBS (INNOPROT) and 1% penicillin-streptomycin (DUTSCHER). These media will have been pre-equilibrated at 37° C. in advance. The cells are then returned to culture at 37° C. under 20% 02 and 5% CO2 for 22h.
After 22 hours of reoxygenation, the potential protective effect of anidulafungin or micafungin is measured by a cell viability test using calcein AM (CORNING), which is a dye substrate. The calcein AM can easily cross the cell membrane of the viable cells. The AM ester groups mask the part of the molecule that chelates calcium. Once inside the cells, the (non-fluorescent) calcein AM is hydrolyzed to (fluorescent) calcein by endogenous esterases. The resulting calcein molecule binds to calcium inside the cell and remains trapped inside the cell. These molecules emit strong green fluorescence when subjected to […] of a particular wavelength (495 nm). Since dead cells lack esterase activity, only living cells are labelled.
This cell viability test is performed in two steps. […]

`CCCCCOc1ccc(-c2cc(-c3ccc(C(=O)N[C@H]4C[C@@H](O)[C@@H](O)NC(=O)[C@@H]5[C@@H](O)[C@@H](C)CN5C(=O)[C@H]([C@H](O)CC(N)=O)NC(=O)[C@H]([C@H](O)[C@@H](O)c5ccc(O)c(OS(=O)(=O)O)c5)NC(=O)[C@@H]5C[C@@H](O)CN5C(=O)[C@H]([C@@H](C)O)NC4=O)cc3)no2)cc1` [Micafungin, {5-[(1S,2S)-2-[(3S,6S,9S,11R,15S,18S,20R,21R,24S,25S,26S)-3-[(1R)-2-carbamoyl-1-hydroxyethyl]-11,20,21,25-tetrahydroxy-15-[(1R)-1-hydroxyethyl]-26-methyl-2,5,8,14,17,23-hexaoxo-18-[(4-{5-[4-(pentyloxy)phenyl]-1,2-oxazol-3-yl}benzene)amido]-1,4,7,13,16,22-hexaazatricyclo[22.3.0.0]heptacosan-6-yl]-1,2-dihydroxyethyl]-2-hydroxyphenyl}oxidanesulfonic acid] (X1-[Orn(4R-OH,5R-OH)]T[Hyp][hTyr(3S-OH,4S-OH,3'-OSO3H)][Gln(3R-OH)][Pro(3S-OH,4S-Me)]; lactam 1-C) was tested, and the “Globalfluo assay 1” value ([Micafungin] log μM −4.39794) was 17038910 arbitrary units, the “Globalfluo assay 2” value ([Micafungin] log μM −4.39794) was 16914110 arbitrary units and the “Globalfluo assay 3” value ([Micafungin] log μM −4.39794) was 17516930 arbitrary units. For the same molecule, the Mean globalfluo ([Micafungin] log μM −4.39794) was 17156650 arbitrary units, the “Survival rate (%)” value ([Micafungin] log μM −4.39794) was 58% and the “Globalfluo assay 1” value ([Micafungin] log μM −4.69897) was 18487560 arbitrary units. The “Globalfluo assay 2” value ([Micafungin] log μM −4.69897) was 18879740 arbitrary units, the “Globalfluo assay 3” value ([Micafungin] log μM −4.69897) was 18282240 arbitrary units and the Mean globalfluo ([Micafungin] log μM −4.69897) was 18549847 arbitrary units. The “Survival rate (%)” value ([Micafungin] log μM −4.69897) was 63%, the “Globalfluo assay 1” value ([Micafungin] log μM −4.79588) was 17777390 arbitrary units and the “Globalfluo assay 2” value ([Micafungin] log μM −4.79588) was 17681470 arbitrary units. For the same molecule, the “Globalfluo assay 3” value ([Micafungin] log μM −4.79588) was 18724080 arbitrary units, the Mean globalfluo ([Micafungin] log μM −4.79588) was 18060980 arbitrary units and the “Survival rate (%)” value ([Micafungin] log μM −4.79588) was 61%. The “Globalfluo assay 1” value ([Micafungin] log μM −4.853872) was 17634840 arbitrary units, the “Globalfluo assay 2” value ([Micafungin] log μM −4.853872) was 17920170 arbitrary units and the “Globalfluo assay 3” value ([Micafungin] log μM −4.853872) was 19831830 arbitrary units. For the same molecule, the Mean globalfluo ([Micafungin] log μM −4.853872) was 18462280 arbitrary units, the “Survival rate (%)” value ([Micafungin] log μM −4.853872) was 63% and the “Globalfluo assay 1” value ([Micafungin] log μM −4.920819) was 18495680 arbitrary units. The “Globalfluo assay 2” value ([Micafungin] log μM −4.920819) was 17954570 arbitrary units, the “Globalfluo assay 3” value ([Micafungin] log μM −4.920819) was 19304800 arbitrary units and the Mean globalfluo ([Micafungin] log μM −4.920819) was 18585017 arbitrary units. The “Survival rate (%)” value ([Micafungin] log μM −4.920819) was 64%, the “Globalfluo assay 1” value ([Micafungin] log μM −5) was 19091330 arbitrary units and the “Globalfluo assay 2” value ([Micafungin] log μM −5) was 21245570 arbitrary units. The “Globalfluo assay 3” value ([Micafungin] log μM −5) was 20574080 arbitrary units, the Mean globalfluo ([Micafungin] log μM −5) was 20303660 arbitrary units and the “Survival rate (%)” value ([Micafungin] log μM −5) was 71%. For the same molecule, the “Globalfluo assay 1” value ([Micafungin] log μM −5.30103) was 17265090 arbitrary units, the “Globalfluo assay 2” value ([Micafungin] log μM −5.30103) was 20693980 arbitrary units and the “Globalfluo assay 3” value ([Micafungin] log μM −5.30103) was 20348120 arbitrary units. For the same molecule, the Mean globalfluo ([Micafungin] log μM −5.30103) was 19435730 arbitrary units, the “Survival rate (%)” value ([Micafungin] log μM −5.30103) was 67% and the “Globalfluo assay 1” value ([Micafungin] log μM −5.69897) was 5296218 arbitrary units. For the same molecule, the “Globalfluo assay 2” value ([Micafungin] log μM −5.69897) was 13559640 arbitrary units, the “Globalfluo assay 3” value ([Micafungin] log μM −5.69897) was 14370600 arbitrary units and the Mean globalfluo ([Micafungin] log μM −5.69897) was 11075486 arbitrary units. For the same molecule, the “Survival rate (%)” value ([Micafungin] log μM −5.69897) was 32%, the “Globalfluo assay 1” value ([Micafungin] log μM −5.823909) was 4696579 arbitrary units and the “Globalfluo assay 2” value ([Micafungin] log μM −5.823909) was 8382404 arbitrary units. For the same molecule, the “Globalfluo assay 3” value ([Micafungin] log μM −5.823909) was 9632039 arbitrary units, the Mean globalfluo ([Micafungin] log μM −5.823909) was 7570341 arbitrary units and the “Survival rate (%)” value ([Micafungin] log μM −5.823909) was 18%. The “Globalfluo assay 1” value ([Micafungin] log μM −6) was 5307945 arbitrary units, the “Globalfluo assay 2” value ([Micafungin] log μM −6) was 5614600 arbitrary units and the “Globalfluo assay 3” value ([Micafungin] log μM −6) was 8026091 arbitrary units. For the same molecule, the Mean globalfluo ([Micafungin] log μM −6) was 6316212 arbitrary units, the “Survival rate (%)” value ([Micafungin] log μM −6) was 13% and the “Globalfluo assay 1” value ([Micafungin] log μM −6.09691) was 6028392 arbitrary units. The “Globalfluo assay 2” value ([Micafungin] log μM −6.09691) was 5998920 arbitrary units, the “Globalfluo assay 3” value ([Micafungin] log μM −6.09691) was 5793032 arbitrary units and the Mean globalfluo ([Micafungin] log μM −6.09691) was 5940115 arbitrary units. For the same molecule, the “Survival rate (%)” value ([Micafungin] log μM −6.09691) was 11%, the “Globalfluo assay 1” value ([Micafungin] log μM −6.221849) was 4745212 arbitrary units and the “Globalfluo assay 2” value ([Micafungin] log μM −6.221849) was 4694631 arbitrary units. The “Globalfluo assay 3” value ([Micafungin] log μM −6.221849) was 5790310 arbitrary units, the Mean globalfluo ([Micafungin] log μM −6.221849) was 5076718 arbitrary units and the “Survival rate (%)” value ([Micafungin] log μM −6.221849) was 8%. The “Globalfluo assay 1” value ([Micafungin] log μM −6.39794) was 4361975 arbitrary units, the “Globalfluo assay 2” value ([Micafungin] log μM −6.39794) was 4442347 arbitrary units and the “Globalfluo assay 3” value ([Micafungin] log μM −6.39794) was 5176795 arbitrary units. The Mean globalfluo ([Micafungin] log μM −6.39794) was 4660372 arbitrary units, the “Survival rate (%)” value ([Micafungin] log μM −6.39794) was 6% and the “Globalfluo assay 1” value ([Micafungin] log μM −6.69897) was 4839699 arbitrary units. The “Globalfluo assay 2” value ([Micafungin] log μM −6.69897) was 4005588 arbitrary units, the “Globalfluo assay 3” value ([Micafungin] log μM −6.69897) was 4289833 arbitrary units and the Mean globalfluo ([Micafungin] log μM −6.69897) was 4378373 arbitrary units. The “Survival rate (%)” value ([Micafungin] log μM −6.69897) was 5%, the “Globalfluo assay 1” value ([Micafungin] log μM −7) was 3602590 arbitrary units and the “Globalfluo assay 2” value ([Micafungin] log μM −7) was 3530551 arbitrary units. The “Globalfluo assay 3” value ([Micafungin] log μM −7) was 3665638 arbitrary units, the Mean globalfluo ([Micafungin] log μM −7) was 3599593 arbitrary units and the “Survival rate (%)” value ([Micafungin] log μM −7) was 2%. For the same molecule, the “Globalfluo assay 1” value ([Micafungin] log μM −8) was 3781795 arbitrary units, the “Globalfluo assay 2” value ([Micafungin] log μM −8) was 3409519 arbitrary units and the “Globalfluo assay 3” value ([Micafungin] log μM −8) was 3718559 arbitrary units. For the same molecule, the Mean globalfluo ([Micafungin] log μM −8) was 3636624 arbitrary units and the “Survival rate (%)” value ([Micafungin] log μM −8) was 2%.
